Results taken from ChEMBL document CHEMBL3217416, “[4-(6,7-Disubstituted quinazolin-4-ylamino)phenyl] carbamic acid esters: a novel series of dual EGFR/VEGFR-2 tyrosine kinase inhibitors” (Medchemcomm, 2011).
Values belong to the compound of their own block, whether it stands above or below them.

Assays:
MCF7 [1] = test: Antiproliferative activity against human MCF7 cells […] by MTS assay; type: functional, cell-based
HT-29 [2] = test: Antiproliferative activity against human HT-29 cells at 10 uM by MTS assay; type: functional, cell-based
[3] = biological target: Vascular endothelial growth factor receptor 2 (Homo sapiens, UniProt P35968); test: Inhibition of VEGFR2 (unknown origin)
Sequence of Vascular endothelial growth factor receptor 2 (P35968 whole entry): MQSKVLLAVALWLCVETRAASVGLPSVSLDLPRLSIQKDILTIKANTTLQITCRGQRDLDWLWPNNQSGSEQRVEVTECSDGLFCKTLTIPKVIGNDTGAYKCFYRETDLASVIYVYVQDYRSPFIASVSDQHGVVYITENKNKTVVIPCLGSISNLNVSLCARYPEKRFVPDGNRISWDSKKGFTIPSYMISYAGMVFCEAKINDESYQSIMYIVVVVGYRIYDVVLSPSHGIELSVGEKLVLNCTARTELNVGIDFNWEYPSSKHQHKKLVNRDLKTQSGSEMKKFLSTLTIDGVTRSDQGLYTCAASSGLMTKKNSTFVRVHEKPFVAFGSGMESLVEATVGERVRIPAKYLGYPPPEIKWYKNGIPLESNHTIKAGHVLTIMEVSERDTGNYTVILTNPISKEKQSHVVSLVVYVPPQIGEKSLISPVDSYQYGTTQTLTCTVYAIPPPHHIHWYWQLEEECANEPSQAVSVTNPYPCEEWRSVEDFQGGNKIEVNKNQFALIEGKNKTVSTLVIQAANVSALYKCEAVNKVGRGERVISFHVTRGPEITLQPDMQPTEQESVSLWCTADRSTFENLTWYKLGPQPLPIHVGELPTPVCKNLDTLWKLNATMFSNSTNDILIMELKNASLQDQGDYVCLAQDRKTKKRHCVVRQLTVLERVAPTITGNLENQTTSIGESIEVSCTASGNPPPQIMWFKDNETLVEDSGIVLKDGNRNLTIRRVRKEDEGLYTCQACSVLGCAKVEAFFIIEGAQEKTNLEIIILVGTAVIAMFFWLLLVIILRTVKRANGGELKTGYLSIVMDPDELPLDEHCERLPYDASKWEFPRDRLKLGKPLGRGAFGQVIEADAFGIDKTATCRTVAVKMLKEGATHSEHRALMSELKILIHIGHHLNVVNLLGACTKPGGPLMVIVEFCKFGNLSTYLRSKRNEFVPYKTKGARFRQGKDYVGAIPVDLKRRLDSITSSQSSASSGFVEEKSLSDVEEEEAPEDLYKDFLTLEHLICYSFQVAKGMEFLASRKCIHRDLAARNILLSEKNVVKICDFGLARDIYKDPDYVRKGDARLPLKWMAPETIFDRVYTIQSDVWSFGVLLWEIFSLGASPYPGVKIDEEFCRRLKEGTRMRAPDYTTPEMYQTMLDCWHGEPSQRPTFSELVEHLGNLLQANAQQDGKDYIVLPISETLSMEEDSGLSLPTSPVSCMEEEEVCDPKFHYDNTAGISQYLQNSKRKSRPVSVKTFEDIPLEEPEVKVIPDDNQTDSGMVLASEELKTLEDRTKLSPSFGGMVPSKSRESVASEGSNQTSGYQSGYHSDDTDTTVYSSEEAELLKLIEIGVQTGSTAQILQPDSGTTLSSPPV

[4] = biological target: Epidermal growth factor receptor (Homo sapiens, UniProt P00533); test: Inhibition of EGFR (unknown origin)
Sequence of Epidermal growth factor receptor (P00533 whole entry): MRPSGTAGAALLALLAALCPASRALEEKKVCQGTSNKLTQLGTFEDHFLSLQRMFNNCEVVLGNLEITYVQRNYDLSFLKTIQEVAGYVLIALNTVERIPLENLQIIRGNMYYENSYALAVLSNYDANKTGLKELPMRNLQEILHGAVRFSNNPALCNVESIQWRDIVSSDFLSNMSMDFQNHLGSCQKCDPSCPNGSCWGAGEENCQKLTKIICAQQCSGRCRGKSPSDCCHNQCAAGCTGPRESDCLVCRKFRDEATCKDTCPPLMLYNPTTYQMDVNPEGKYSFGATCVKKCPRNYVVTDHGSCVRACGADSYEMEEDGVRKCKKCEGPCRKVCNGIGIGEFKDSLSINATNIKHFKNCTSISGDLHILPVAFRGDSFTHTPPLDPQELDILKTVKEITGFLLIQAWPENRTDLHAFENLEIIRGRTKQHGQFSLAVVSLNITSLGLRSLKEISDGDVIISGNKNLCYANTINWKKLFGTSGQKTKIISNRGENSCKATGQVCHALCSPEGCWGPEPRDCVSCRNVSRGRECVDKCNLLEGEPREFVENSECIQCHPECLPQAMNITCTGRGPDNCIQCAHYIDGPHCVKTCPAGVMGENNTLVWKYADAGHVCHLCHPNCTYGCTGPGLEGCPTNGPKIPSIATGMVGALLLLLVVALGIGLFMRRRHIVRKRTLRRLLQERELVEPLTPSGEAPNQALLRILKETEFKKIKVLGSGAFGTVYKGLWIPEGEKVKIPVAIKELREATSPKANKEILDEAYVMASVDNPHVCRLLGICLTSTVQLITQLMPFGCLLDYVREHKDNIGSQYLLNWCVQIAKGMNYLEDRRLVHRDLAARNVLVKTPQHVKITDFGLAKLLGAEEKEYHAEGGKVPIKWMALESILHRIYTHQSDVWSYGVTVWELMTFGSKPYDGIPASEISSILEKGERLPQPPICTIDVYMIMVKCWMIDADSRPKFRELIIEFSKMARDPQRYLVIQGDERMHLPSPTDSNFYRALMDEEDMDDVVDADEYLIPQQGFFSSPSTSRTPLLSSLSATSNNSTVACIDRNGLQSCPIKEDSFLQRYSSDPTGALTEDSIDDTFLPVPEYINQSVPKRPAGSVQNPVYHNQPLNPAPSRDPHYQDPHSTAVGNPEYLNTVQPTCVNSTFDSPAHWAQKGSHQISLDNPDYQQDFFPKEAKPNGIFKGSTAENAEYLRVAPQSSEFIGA

PC-3 [5] = test: Antiproliferative activity against human PC3 cells at 10 uM by MTS assay; type: functional, cell-based
[6] = Antiproliferative activity against human EAhy926 cells by MTS assay; type: functional, cell-based; conditions: EA.hy 926
PC-3 [7] = test: Antiproliferative activity against human PC3 cells by MTS assay; type: functional
MCF7 [8] = test: Antiproliferative activity against human MCF7 cells by MTS assay; type: functional
HT-29 [9] = test: Antiproliferative activity against human HT-29 cells by MTS assay; type: functional

Structure (SMILES): CCOC(=O)Nc1ccc(Nc2ncnc3cc(OCCN4CCOCC4)c(OC)cc23)cc1C
IC50 (MCF7 [1]): > 10 µM
IC50 (HT-29 [2]): > 10 µM
IC50 [3]: 0.4 µM
IC50 [4]: 8 µM
IC50 (PC-3 [5]): > 10 µM
IC50 [6]: > 10 µM

Structure (SMILES): CCCCOc1cc2c(Nc3ccc(NC(=O)OCC)c(C)c3)ncnc2cc1OCCN(CC)CC
IC50 (MCF7 [1]): > 10 µM
IC50 [3]: 5.7 µM
IC50 [4]: > 10 µM
IC50 (PC-3 [5]): > 10 µM
IC50 [6]: 8.1 µM

Structure (SMILES): CCCCOC(=O)Nc1ccc(Nc2ncnc3cc(OC)c(OC)cc23)cc1
IC50 [4]: 0.8 µM

Structure (SMILES): COC(=O)Nc1ccc(Nc2ncnc3cc(OC)c(OC)cc23)cc1C
IC50 [4]: 4 µM

Structure (SMILES): CCOC(=O)Nc1ccc(Nc2ncnc3cc(OC)c(OCCN(CC)CC)cc23)cc1C
IC50 (MCF7 [1]): > 10 µM
IC50 (HT-29 [2]): > 10 µM
IC50 [3]: 7.2 µM
IC50 [4]: > 10 µM
IC50 (PC-3 [5]): > 10 µM
IC50 [6]: > 10 µM

Structure (SMILES): CCCOC(=O)Nc1ccc(Nc2ncnc3cc(OC)c(OC)cc23)cc1
IC50 [4]: 7.05 µM

Structure (SMILES): CCOC(=O)Nc1cc(Nc2ncnc3cc(OC)c(OC)cc23)ccc1Cl
IC50 [4]: 0.9 µM

Structure (SMILES): CCOC(=O)Nc1cc(Cl)c(Nc2ncnc3cc(OC)c(OC)cc23)cc1Cl.Cl
inhibition (INH) (PC-3 [7]): 0%
inhibition (INH) (MCF7 [8]): 6%
IC50 [4]: > 10 µM
inhibition (INH) (HT-29 [9]): 5%

Structure (SMILES): COC(=O)Nc1ccc(Nc2ncnc3cc(OC)c(OC)cc23)cc1Cl
IC50 [3]: 5.05 µM
IC50 [4]: 6.15 µM

Structure (SMILES): CCC(=O)Nc1ccc(Nc2ncnc3cc(OC)c(OC)cc23)cc1C.Cl
inhibition (INH) (PC-3 [7]): 0%
inhibition (INH) (MCF7 [8]): 28%
IC50 [4]: > 10 µM
inhibition (INH) (HT-29 [9]): 0%

Structure (SMILES): CCCCOC(=O)Nc1ccc(Nc2ncnc3cc(OC)c(OC)cc23)cc1Cl
IC50 [4]: 6.4 µM

Structure (SMILES): CCCCOC(=O)Nc1ccc(Nc2ncnc3cc(OC)c(OC)cc23)cc1C
IC50 [3]: 5.2 µM
IC50 [4]: 7.6 µM

Structure (SMILES): CCCCC(=O)Nc1ccc(Nc2ncnc3cc(OC)c(OC)cc23)cc1C
IC50 [4]: > 10 µM

Structure (SMILES): CCCOc1cc2ncnc(Nc3ccc(NC(=O)OCC)c(C)c3)c2cc1OC
IC50 [4]: 3.9 µM

Structure (SMILES): CCOC(=O)Nc1ccc(Nc2ncnc3cc(OC)c(OC)cc23)cc1C
IC50 [4]: 0.9 µM

Structure (SMILES): COc1cc2/c(=N/c3ccc(Br)cc3F)nc[nH]c2cc1OCC1CCN(C)CC1 [VANDETANIB]
inhibition (INH) (PC-3 [7]): 33%
inhibition (INH) (MCF7 [8]): 26%

Structure (SMILES): CCOC(=O)Nc1cc(Nc2ncnc3cc(OC)c(OC)cc23)ccc1C
IC50 [4]: 5 µM

Structure (SMILES): CCOC(=O)Nc1ccc(Nc2ncnc3cc(OCCN(CC)CC)c(OC)cc23)cc1C
IC50 (MCF7 [1]): > 10 µM
IC50 (HT-29 [2]): > 10 µM
IC50 [3]: 3.7 µM
IC50 [4]: > 10 µM
IC50 (PC-3 [5]): > 10 µM
IC50 [6]: > 10 µM

Structure (SMILES): CCOC(=O)Nc1ccc(Nc2ncnc3cc(OCCN4CCCCC4)c(OC)cc23)cc1Cl
IC50 (MCF7 [1]): 3 µM
IC50 (HT-29 [2]): 5.2 µM
IC50 [3]: 0.8 µM
IC50 [4]: > 10 µM
IC50 (PC-3 [5]): > 10 µM
IC50 [6]: 9.3 µM

Structure (SMILES): CCCOc1cc2ncnc(Nc3ccc(NC(=O)OCC)c(Cl)c3)c2cc1OC
IC50 [4]: 5.5 µM

More lines, main results first:

IC50 [4]: > 10 µM
Structure (SMILES): COC(=O)Nc1cc(Nc2ncnc3cc(OC)c(OC)cc23)ccc1Cl.Cl
inhibition (INH) (PC-3 [7]): 3%
inhibition (INH) (MCF7 [8]): 0%
inhibition (INH) (HT-29 [9]): 0%

IC50 [3]: 4.3 µM
IC50 [4]: > 10 µM
Structure (SMILES): CCCC(=O)Nc1ccc(Nc2ncnc3cc(OC)c(OC)cc23)cc1C

IC50 [4]: > 10 µM
Structure (SMILES): CCCCNC(=O)Nc1cc(Cl)c(Nc2ncnc3cc(OC)c(OC)cc23)cc1Cl.Cl
inhibition (INH) (PC-3 [7]): 0%
inhibition (INH) (MCF7 [8]): 0%
inhibition (INH) (HT-29 [9]): 3%

IC50 (MCF7 [1]): > 10 µM
IC50 (HT-29 [2]): 5.2 µM
IC50 [3]: 0.9 µM
IC50 [4]: > 10 µM
IC50 (PC-3 [5]): > 10 µM
Structure (SMILES): CCOC(=O)Nc1ccc(Nc2ncnc3cc(OCCN4CCCCC4)c(OC)cc23)cc1C
IC50 [6]: 9.3 µM

IC50 (MCF7 [1]): > 10 µM
IC50 [3]: 3.3 µM
IC50 [4]: > 10 µM
IC50 (PC-3 [5]): > 10 µM
Structure (SMILES): CCOC(=O)Nc1ccc(Nc2ncnc3cc(OCCN(CC)CC)c(OC)cc23)cc1Cl
IC50 [6]: 6.2 µM

IC50 [3]: 4.8 µM
IC50 [4]: 9.8 µM
IC50 (PC-3 [5]): > 10 µM
Structure (SMILES): CCCCOc1cc2c(Nc3ccc(NC(=O)OCC)c(Cl)c3)ncnc2cc1OCCN(CC)CC
IC50 [6]: 2.8 µM

IC50 (MCF7 [1]): > 10 µM
IC50 (HT-29 [2]): > 10 µM
IC50 [3]: 0.3 µM
IC50 [4]: 8.5 µM
IC50 (PC-3 [5]): > 10 µM
Structure (SMILES): CCOC(=O)Nc1ccc(Nc2ncnc3cc(OCCN4CCOCC4)c(OC)cc23)cc1Cl
IC50 [6]: > 10 µM

IC50 [4]: > 10 µM
Structure (SMILES): COc1cc2ncnc(Nc3ccc(NC(C)=O)c(C)c3)c2cc1OC.Cl
inhibition (INH) (PC-3 [7]): 0%
inhibition (INH) (MCF7 [8]): 0%
inhibition (INH) (HT-29 [9]): 0%

IC50 [4]: > 10 µM
Structure (SMILES): CCNC(=O)Nc1cc(Cl)c(Nc2ncnc3cc(OC)c(OC)cc23)cc1Cl.Cl
inhibition (INH) (PC-3 [7]): 11%
inhibition (INH) (MCF7 [8]): 21%
inhibition (INH) (HT-29 [9]): 16%

IC50 [4]: 1 µM
Structure (SMILES): CCOC(=O)Nc1ccc(Nc2ncnc3cc(OC)c(OC)cc23)cc1Cl

IC50 [4]: 1 µM
Structure (SMILES): CCCOC(=O)Nc1ccc(Nc2ncnc3cc(OC)c(OC)cc23)cc1Cl
